What all share (assay): growth of human tumour cells (NCI), 48 h
Assay [1] relates to LOX IMVI.
The test system of assay [2] is SK-OV-3.
Assay [3] has as its system IGROV-1.
Assay [4] deals with NCI-H23.
Assay [5] relates to SK-MEL-28.
Assay [6] has as its system KM12.
Assay [7] relates to SK-MEL-5.
Assay [8] deals with KM-20L2.
For assay [9], the system named is MDA-MB-231.
Assay [10] has as its system BT-549.
The test system of assay [11] is A498.
The subject of assay [12] is SK-MEL-2.
Assay [13] has as its system SF-268.
Assay [14] concerns PC-3.
Assay [15] concerns SW-620.
The subject of assay [16] is ACHN.
Assay [17] deals with COLO 205.
Assay [18] has as its system HT-29.
Assay [19] deals with SF-295.
For assay [20], the system named is UACC-257.

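Following 48 hours of exposure in 96-well plates, responses at five concentrations were used to interpolate endpoints linearly. GI50 is the concentration that inhibits growth by half.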 Activity calls are given as the source filed them. Cut-off read from the data, not from the text of the source: active = GI50 up to about 1.1 µM and inactive = higher.

With `COc1c(OC(C)=O)c(OC(C)=O)cc2c1-c1ccc(OC)c(=O)cc1C(NC(C)=O)CC2` (stereo not drawn), the GI50 in assay [1] is < 0.0147 µM (active); in assay [2], 2.29 µM (inactive); in assay [3], 0.0254 µM (active); in [4], 0.0199 µM (active); in [5] it was < 0.0363 µM (active); in [6], 0.0154 µM (active). Further, the GI50 in [7] is 0.0116 µM (active); in assay [8] it was 0.0222 µM (active); in [9] it was 0.0129 µM (active); in [10], > 100 µM (inactive); in [11], 0.0513 µM (active); in [12] it was 0.0186 µM (active). Also, the GI50 in assay [13] is 0.0218 µM (active); in [14] it was 0.0493 µM (active); in assay [15], < 0.0125 µM (active); in [16], 0.439 µM (active); in assay [17] it was 0.0171 µM (active); in [18], 0.0198 µM (active). Moreover, the GI50 in [19] is 0.0424 µM (active).
Take `Nc1nc(SCCC/C=C/B(O)O)nc2c1ncn2C1OC(COP(=O)(O)O)C(O)C1O` (stereo not drawn): the GI50 in assay [1], in [2], in [3], in [4], in assay [5] and in assay [6] was > 203 µM (inactive) in each case. For the same compound, the GI50 in [7], in assay [8], in assay [11], in assay [12], in assay [13] and in assay [15] was > 203 µM (inactive) throughout. Besides, the GI50 in [20], in [16], in assay [17], in assay [18] and in [19] was > 203 µM (inactive) in each case.
For `CCOC(=O)c1s/c(=N\Nc2nc3ccccc3cc2C2OCCO2)n(Cc2ccccc2)c1C`, the GI50 in [1], in [2], in assay [3], in [4], in [5] and in [6] was > 100 µM (inactive) in each case. Further, the GI50 in assay [7], in [8], in [11], in [12], in assay [13] and in assay [15] was > 100 µM (inactive) each time. The GI50 in assay [20], in assay [16], in [17], in [18] and in assay [19] was > 100 µM (inactive) each time.

For the origin of these results see ChEMBL document CHEMBL1201862, “PubChem BioAssay data set” (2004).
